Reference: patent US8557816B2, “Aurora kinase modulators and method of use” (Amgen Inc., priority 2007, dated 2013)

What was measured:
AuroraB = target: T1, AuroraB (Homo sapiens, UniProt Q96GD4); assay: AuroraB Homogeneous Time Resolved Fluorescent (HTRF) kinase assay; assay type: biochemical; conditions: average; read-out: AurB_IC50_IP (uM Avg)
T1 construct: 20 μL of AuroraB FL H is for a final volume of 41 μL; His
Summary of the method: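 Read-out is time-resolved FRET between europium anti-phospho-H3 antibody and streptavidin-APC, added in EDTA buffer to stop the reaction and equilibrated about 60 min (ex 320, em 615 and 655 nm). Preceding reaction: ~90 min, full-length enzyme, ATP, 0.1 μM biotin-Histone H3 substrate, Mg/Mn HEPES buffer pH 7.5.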

AuroraA-TPX2 = target: T2, AuroraA-TPX2 (Homo sapiens, UniProt O14965); assay: AuroraA-TPX2 Homogeneous Time Resolved Fluorescent (HTRF) kinase assay; assay type: biochemical; conditions: average; read-out: AurA_IC50_IP (uM Avg)
T2 construct: 20 μL of AuroraA-TPX2 KD GST for a final volume of about 41 μL; GST
T2 sequence (O14965 133-383 limits assumed): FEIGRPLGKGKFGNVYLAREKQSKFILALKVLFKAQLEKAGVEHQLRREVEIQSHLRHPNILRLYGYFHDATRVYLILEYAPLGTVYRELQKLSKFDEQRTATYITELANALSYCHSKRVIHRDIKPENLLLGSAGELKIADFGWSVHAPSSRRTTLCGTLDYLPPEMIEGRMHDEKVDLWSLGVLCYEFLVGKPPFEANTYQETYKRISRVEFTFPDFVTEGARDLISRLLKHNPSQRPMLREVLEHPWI
T2 sequence (Q9ULW0 1-43 partner limits assumed): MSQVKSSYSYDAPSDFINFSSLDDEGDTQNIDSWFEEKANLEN
Summary of the method: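 HTRF read-out (Eu 615 nm to APC 655 nm) of phosphorylated biotin-PLK, detected with 0.02 nM europium anti-phosphoPLK antibody and 0.0005 mg/mL SA-APC after overnight equilibration.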

T1 sequence (Q96GD4 whole entry): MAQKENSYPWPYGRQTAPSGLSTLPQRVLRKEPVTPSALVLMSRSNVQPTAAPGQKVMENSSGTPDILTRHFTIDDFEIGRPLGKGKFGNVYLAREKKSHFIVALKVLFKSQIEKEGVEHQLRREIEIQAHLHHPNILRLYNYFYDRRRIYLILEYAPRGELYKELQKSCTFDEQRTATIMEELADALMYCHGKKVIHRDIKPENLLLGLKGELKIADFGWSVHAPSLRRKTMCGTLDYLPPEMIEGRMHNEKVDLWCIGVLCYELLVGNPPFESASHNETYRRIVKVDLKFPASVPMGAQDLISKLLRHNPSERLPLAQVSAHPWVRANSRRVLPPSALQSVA

Row | IC50 (AuroraB) | IC50 (AuroraA-TPX2) | Structure (SMILES)
1 | 0.01 µM | 0.051 µM | COc1cnc2c(Oc3ccc(Nc4nnc(-c5cccc(Cl)c5)c5ccccc45)cc3)ccnc2c1 [compound 219, 4-(3-chlorophenyl)-N-(4-((7-(methyloxy)-1,5-naphthyridin-4-yl)oxy)phenyl)-1-phthalazinamine]
2 | 0.004 µM | 0.047 µM | COc1cnc2c(Oc3ccc(Nc4nnc(-c5ccc(F)cc5)c5ccccc45)cc3)ccnc2c1 [compound 220, 4-(4-fluorophenyl)-N-(4-((7-(methyloxy)-1,5-naphthyridin-4-yl)oxy)phenyl)-1-phthalazinamine]
3 | 0.007 µM | 0.026 µM | CCc1ccc(-c2nnc(Nc3ccc(Oc4ccnc5cc(OC)cnc45)cc3)c3ccccc23)cc1 [compound 221, 4-(4-ethylphenyl)-N-(4-((7-(methyloxy)-1,5-naphthyridin-4-yl)oxy)phenyl)-1-phthalazinamine]
4 | 0.006 µM | 0.047 µM | COc1cnc2c(Oc3ccc(Nc4nnc(-c5ccc(Cl)cc5)c5ccccc45)cn3)ccnc2c1 [compound 222, 4-(4-chlorophenyl)-N-(6-((7-(methyloxy)-1,5-naphthyridin-4-yl)oxy)-3-pyridinyl)-1-phthalazinamine]
5 | 0.039 µM | 1.33 µM | COc1cnc2c(Oc3ccc(Nc4nnc(-c5ccnn5C)c5ccccc45)cc3)ccnc2c1 [compound 223, N-(4-((7-(methyloxy)-1,5-naphthyridin-4-yl)oxy)phenyl)-4-(1-methyl-1H-pyrazol-5-yl)-1-phthalazinamine]
6 | 0.011 µM | 0.034 µM | COc1cnc2c(Oc3ccc(Nc4nnc(-c5ccc(C)c(Cl)c5)c5ccccc45)cc3)ccnc2c1 [compound 224, 4-(3-chloro-4-methylphenyl)-N-(4-((7-(methyloxy)-1,5-naphthyridin-4-yl)oxy)phenyl)-1-phthalazinamine]
7 | 0.004 µM | 0.023 µM | COc1cc2nccc(Oc3ccc(Nc4nnc(-c5ccccc5)c5ccccc45)cc3)c2cc1C(N)=O [compound 225, 7-(methyloxy)-4-((4-((4-phenyl-1-phthalazinyl)amino)phenyl)oxy)-6-quinolinecarboxamide]
8 | 0.014 µM | 0.187 µM | COc1cnc2c(Oc3ccc(Nc4nnc(-c5cccc(C(=O)N(C)C)c5)c5ccccc45)cc3)ccnc2c1 [compound 226, N,N-dimethyl-3-(4-((4-((7-(methyloxy)-1,5-naphthyridin-4-yl)oxy)phenyl)amino)-1-phthalazinyl)benzamide]
9 | 0.003 µM | 0.051 µM | COc1cnc2c(Oc3ccc(Nc4nnc(-c5ccc(OC)c(F)c5)c5ccccc45)cc3)ccnc2c1 [compound 227, 4-(3-fluoro-4-(methyloxy)phenyl)-N-(4-((7-(methyloxy)-1,5-naphthyridin-4-yl)oxy)phenyl)-1-phthalazinamine]
10 | 0.004 µM | 0.034 µM | COc1cnc2c(Oc3ccc(Nc4nnc(-c5ccc(Cl)cn5)c5ccccc45)cc3)ccnc2c1 [compound 228, 4-(5-chloro-2-pyridinyl)-N-(4-((7-(methyloxy)-1,5-naphthyridin-4-yl)oxy)phenyl)-1-phthalazinamine]
11 | 0.007 µM | 0.024 µM | CCc1ccc(-c2nnc(Nc3ccc(Oc4ccnc5cc(OC)cnc45)cc3)c3ccccc23)s1 [compound 229, 4-(5-ethyl-2-thienyl)-N-(4-((7-(methyloxy)-1,5-naphthyridin-4-yl)oxy)phenyl)-1-phthalazinamine]
12 | 0.031 µM | 5 µM | c1ccc(-c2nnc(Nc3ccc(Oc4ccnc5c4NCCC5)cc3)c3ccccc23)cc1 [compound 230, 4-phenyl-N-(4-(5,6,7,8-tetrahydro-1,5-naphthyridin-4-yloxy)phenyl)-1-phthalazinamine]
13 | 0.032 µM | 0.379 µM | N#Cc1ccc2c(Oc3ccc(Nc4nnc(-c5ccc(Cl)c(C#N)c5)c5ccccc45)cc3)ccnc2c1 [compound 231, 4-((4-((4-(4-chloro-3-cyanophenyl)-1-phthalazinyl)amino)phenyl)oxy)-7-quinolinecarbonitrile]
14 | 0.015 µM | 0.036 µM | COc1cnc2c(Sc3ccc(Nc4nnc(-c5ccc(Cl)cc5)c5ccccc45)cc3)ccnc2c1 [compound 232, 4-(4-chlorophenyl)-N-(4-((7-(methyloxy)-1,5-naphthyridin-4-yl)thio)phenyl)-1-phthalazinamine]
15 | 0.021 µM | 0.845 µM | COc1cnc2c(Oc3ccc(Nc4nnc(-c5ccc(Cl)cc5C)c5ccccc45)cc3)ccnc2c1 [compound 233, 4-(4-chloro-2-methylphenyl)-N-(4-((7-(methyloxy)-1,5-naphthyridin-4-yl)oxy)phenyl)-1-phthalazinamine]
16 | 0.006 µM | 0.173 µM | COc1cnc2c(Oc3ccc(Nc4nnc(-c5ccccc5)cc4C(C)C)cc3)ccnc2c1 [compound 234, 4-(1-methylethyl)-N-(4-((7-(methyloxy)-1,5-naphthyridin-4-yl)oxy)phenyl)-6-phenyl-3-pyridazinamine]
17 | 0.003 µM | 0.123 µM | COc1cnc2c(Oc3ccc(Nc4nnc(-c5ccc(Cl)nc5)c5ccccc45)cc3)ccnc2c1 [compound 235, 4-(6-chloro-3-pyridinyl)-N-(4-((7-(methyloxy)-1,5-naphthyridin-4-yl)oxy)phenyl)-1-phthalazinamine]
18 | 0.008 µM | 0.027 µM | COc1cnc2c(Oc3ccc(Nc4nnc(-c5ccc(Cl)c(C)c5)c5ccccc45)cc3)ccnc2c1 [compound 236, 4-(4-chloro-3-methylphenyl)-N-(4-((7-(methyloxy)-1,5-naphthyridin-4-yl)oxy)phenyl)-1-phthalazinamine]
19 | 0.005 µM | 0.038 µM | COc1cnc2c(Oc3ccc(Nc4nnc(-c5ccc(SC)cc5)c5ccccc45)cc3)ccnc2c1 [compound 237, N-(4-((7-(methyloxy)-1,5-naphthyridin-4-yl)oxy)phenyl)-4-(4-(methylthio)phenyl)-1-phthalazinamine]
20 | 0.005 µM | 0.265 µM | COc1ccc2nccc(Oc3ccc(Nc4nnc(-c5ccccc5)c5ccccc45)cc3)c2c1 [compound 238, N-(4-((6-(methyloxy)-4-quinolinyl)oxy)phenyl)-4-phenyl-1-phthalazinamine]
21 | 0.008 µM | 0.12 µM | COc1ccc2nccc(Oc3ccc(Nc4nnc(-c5ccc(Cl)cc5)c5ccccc45)cc3)c2c1 [compound 239, 4-(4-chlorophenyl)-N-(4-((6-(methyloxy)-4-quinolinyl)oxy)phenyl)-1-phthalazinamine]
22 | 0.001 µM | 0.006 µM | COc1cccc(-c2nnc(Nc3ccc(Oc4ccnc5cc(-c6cncn6C)sc45)cc3)c3ccccc23)n1 [compound 240, N-(4-((2-(1-methyl-1H-imidazol-5-yl)thieno[3,2-b]pyridin-7-yl)oxy)phenyl)-4-(6-(methyloxy)-2-pyridinyl)-1-phthalazinamine]
23 | 0.001 µM | 0.089 µM | Clc1ccc(-c2nnc(Nc3ccc(Oc4ccnc5[nH]ccc45)cc3)c3ccccc23)cc1 [compound 241, 4-(4-chlorophenyl)-N-(4-(1H-pyrrolo[2,3-b]pyridin-4-yloxy)phenyl)-1-phthalazinamine]
24 | 0.022 µM | 0.173 µM | N#Cc1ccc2c(Oc3ccc(Nc4nnc(-c5ccc(Cl)cc5)c5ccccc45)cc3)ccnc2c1 [compound 242, 4-((4-((4-(4-chlorophenyl)-1-phthalazinyl)amino)phenyl)oxy)-7-quinolinecarbonitrile]
25 | 0.005 µM | 0.014 µM | COc1cnc2c(Oc3ccc(Nc4nnc(-c5ccc(C)c(F)c5)c5ccccc45)cc3)ccnc2c1 [compound 243, 4-(3-fluoro-4-methylphenyl)-N-(4-((7-(methyloxy)-1,5-naphthyridin-4-yl)oxy)phenyl)-1-phthalazinamine]
26 | 0.006 µM | 0.153 µM | Brc1cnc2c(Oc3ccc(Nc4nnc(-c5ccccc5)c5ccccc45)cc3)ccnc2c1 [compound 245, N-(4-((7-bromo-1,5-naphthyridin-4-yl)oxy)phenyl)-4-phenyl-1-phthalazinamine]
27 | 0.008 µM | 0.032 µM | COc1cnc2c(Oc3ccc(Nc4nnc(-c5ccc(F)c(C)c5)c5ccccc45)cc3)ccnc2c1 [compound 246, 4-(4-fluoro-3-methylphenyl)-N-(4-((7-(methyloxy)-1,5-naphthyridin-4-yl)oxy)phenyl)-1-phthalazinamine]
28 | 0.032 µM | 0.219 µM | COc1cnc2c(N(C)c3ccc(Nc4nnc(-c5cc(C)cs5)c5ccccc45)cc3)ccnc2c1 [compound 247, N-methyl-N-(7-(methyloxy)-1,5-naphthyridin-4-yl)-N′-(4-(4-methyl-2-thienyl)-1-phthalazinyl)-1,4-benzenediamine]
29 | 0.001 µM | 0.004 µM | Cn1cncc1-c1cc2nccc(Oc3ccc(Nc4nnc(-c5ccc(Cl)cc5)c5ccccc45)cc3)c2s1 [compound 249, 4-(4-chlorophenyl)-N-(4-((2-(1-methyl-1H-imidazol-5-yl)thieno[3,2-b]pyridin-7-yl)oxy)phenyl)-1-phthalazinamine]
30 | 0.003 µM | 0.094 µM | Clc1ccc(-c2nnc(Nc3ccc(Oc4ccnc5ccsc45)cc3)c3ccccc23)cc1 [compound 250, 4-(4-chlorophenyl)-N-(4-(thieno[3,2-b]pyridin-7-yloxy)phenyl)-1-phthalazinamine]
